Columns and labels:
HCT116 tumors = conditions: mouse, in vivo
Description: Radiolabeled metabolites from plasma and tissues were quantified using a method adapted from Smith G, Zhao Y, Leyton J, et al. Radiosynthesis and pre-clinical evaluation of [(18)F]fluoro-[1,2-(2)H(4)]choline. Nucl Med Biol. 2011; 38:39-51. Briefly, tumor-bearing mice under terminal anaesthesia were administered a bolus i.v. injection of one of the following radiotracers: ^11C-choline, ^11C-D4-choline (˜18.5 MBq) or ^18F-D4-choline (˜3.7 MBq), and sacrificed by exsanguination via cardiac puncture at 2, 15, 30 or 60 min post radiotracer injection. For automated radiosynthesis methodology, see Example 22. Tumor, kidney and liver samples were immediately snap-frozen in liquid nitrogen. Aliquots of heparinized blood were rapidly centrifuged (14000 g, 5 min, 4° C.) to obtain plasma. Plasma samples were subsequently snap-frozen in liquid nitrogen and kept on dry ice prior to analysis.
For analysis, samples were thawed and kept at 4° C. immediately before use. To ice cold plasma (200 μl) was added ice cold methanol (1.5 mL) and the resulting suspension centrifuged (14000 g; 4° C.; 3 min). The supernatant was then decanted and evaporated to dryness on a rotary evaporator (bath temperature, 40° C.), then resuspended in HPLC mobile phase (Solvent A: acetonitrile/water/ethanol/acetic acid/1.0 M ammonium acetate/0.1 M sodium phosphate [800/127/68/2/3/10]; 1.1 mL). Samples were filtered through a hydrophilic syringe filter (0.2 μm filter; Millex PTFE filter, Millipore, Mass., USA) and the sample (˜1 mL) then injected via a 1 mL sample loop onto the HPLC for analysis. Tissues were homogenized in ice-cold methanol (1.5 mL) using an Ultra-Turrax T-25 homogenizer (IKA Werke GmbH and Co. KG, Staufen, Germany) and subsequently treated as per plasma samples.
Samples were analyzed on an Agilent 1100 series HPLC system (Agilent Technologies, Santa Clara, Calif., USA), configured as described above, using the method of Leyton J, Smith G, Zhao Y, et al. [18F]fluoromethyl-[1, 2-2H4]-choline: a novel radiotracer for imaging choline metabolism in tumors by positron emission tomography. Cancer Res. 2009; 69:7721-7728. A μBondapak C18 HPLC column (Waters, Milford, Mass., USA; […]), stationary phase and a mobile phase comprising of Solvent A (vide supra) and Solvent B (acetonitrile/water/ethanol/acetic acid/1.0 M ammonium acetate/0.1 M sodium phosphate (400/400/68/44/88/10)), delivered at a flow rate of 3 mL/min were used for analyte separation. The gradient was set as follows: 0% B for 5 min; 0% to 100% B in 10 min; 100% B for 0.5 min; 100% to 0% B in 2 min; 0% B for 2.5 min.
^11C-choline, ^11C-D4-choline and ^18F-D4-choline metabolism were measured in HCT116 tumors (FIG. 22).

[1] = mouse, in vivo, iv

SMILES: [2H]C([2H])(O)C([2H])([2H])[N+](C)(C)C[18F] [[^18F]D4-FCH, [^18F]fluoromethyl-[1,2-^2H4]-choline]
- tumor betaine radioactivity (HCT116 tumors): 14.0±3.0%
- tumor radioactivity corresponding to phosphocholine (HCT116 tumors): 45.1±3.2%
- higher un-metabolized parent tracer in tumor compared to 11C-D4-choline (HCT116 tumors; 1 h): 4.0 fold
- higher un-metabolized parent tracer in tumor compared to 11C-choline (HCT116 tumors; 1 h): 2.7 fold
- conversion to betaine metabolite in plasma [1]: ~40%

— patent publication US20130183239A1, “ISOTOPIC CARBON CHOLINE ANALOGS” (IMPERIAL COLLEGE, priority 2010, published 2013)
